Laboratory results: patent publication US20150050244A1, “Entomopathogenic Fungi and Uses Thereof” (priority 2008, published 2015)
“And” between values parts separate entries of the source, which are not always exact repeats. Equal values may be shown once.

System: green pea aphid (Myzus persicae)
Assay: Aphid mortality on leaf discs, Potters tower, K4B3 extract versus beauvericin
Format: in vivo
Method: Table 7 below presents mortality observed amongst green pea aphid (Myzus persicae) present on Asian brassica leaf discs. Asian brassica leaf discs were placed on 1% water agar in Petri dishes. […] The sprayed Petri dishes were placed dorsal side down on paper towels to allow surfaces to dry. Five replicates of each treatment were done. Mortality was assessed 48 hours after application.

[1] = per replicate, 2 mL sprayed, 48 hours, beauvericin solution 50 μg/mL with 2.5 mL millennium oil/L
[2] = total of replicates, 2 mL sprayed, 48 hours

## beauvericin
Beauvericin alone, Table 7
  mortality compared with the water control: not significantly different
Beauvericin even at 50,000 μg/L
  aphid mortality (in words): very low
[1]
  Alive Adult: 0 (3×) and 8 and 10
  Alive Juv.: 0 (3×) and 22 and 28
  Dead Adult: 0 (4×) and 1
  Dead Juv.: 0 (3×) and 1 and 3
[2]
  Total Alive Adult: 18
  Total Alive Juv.: 50
  Total Dead Adult: 1
  Total Dead Juv.: 4
